Assay results published in patent EP0014434A1, “Right-turning basic derivative of 9,10-ethanoanthracene, process for its preparation and pharmaceutical preparations containing it” (priority 1979, dated 1980).

Columns and labels:
[1] = test system: durch 2 mg/kg sc. Reserpin induzierten Hypothermie; test: Antagonism of reserpine-induced hypothermia; format: in vivo, männlichen Mäusen; conditions: male mice, Hydrochlorid compared with the corresponding Racemat
Method: (§1) Das S-(+)-o-[Methylamino)methyl]-9,10-äthanoan- thracen-9(10H)-äthanol und seine Säureadditionssalze besitzen wertvolle pharmakologische Eigenschaften. Vor allem zeigen sie sehr starke Wirkungen in Tests, die für Antidepressiva charakteristisch sind. Eine deutliche Antagonisierung der durch 2 mg/kg sc. Reserpin induzierten Hypothermie an männlichen Mäusen [Askew, Life Sci. 10, 725 (1963),und Benz und Waser, Dissertation 1971, Pharmakolog. […] Die durch 2 mg/kg sc. Reserpin induzierte Ptosis an männlichen Ratten [Rubin et al, J. Pharmacol. Exp. Therap.

[2] = test system: durch 2 mg/kg sc. Reserpin induzierte Ptosis; test: Antagonism of reserpine-induced ptosis; format: in vivo, männlichen Ratten
Method: as §1

[3] = test system: Noradrenalin- Aufnahme ins Rattenherz; test: Inhibition of noradrenaline uptake into rat heart (method of Maitre, Staehelin and Bein); format: in vivo, Ratte; conditions: po, Formel I tested as Hydrochlorid, read-out: ED50 Hemmung der Noradrenalin- Aufnahme ins Rattenherz
Method: Neurobiochemisch zeigt das Hydrochlorid der Verbindung der Formel I eine starke Hemmung der Noradrenalin- Aufnahme ins Rattenherz gemäss der Methode von L. Maitre, M. Staehelin und H. Bein, Biochem. Pharmacol. 20, 2169 (1971) mit einer ED50 von etwa 0,3 mg/kg p.o., während die ED50 des entsprechenden Racemats bei etwa 1,5 mg/kg p.o. liegt, wie auch eine starke Hemmung des Noradrenalindepletierenden Effektes von H 77/77 (3-Hydroxy-4,a-dimethyl- phenäthylamin) im Rattenhirn als indirekte Anzeige der Noradrenalin-Aufnahme-Hemmung [A. Carlsson, H. Corrodi, K. Fuxe und T. Hoefkelt, Europ. J. Pharmacol. 5, 367 (1969)] mit einer ED50 von etwa 2 mg/kg p.o., gegenüber einer ED50 von etwa 10 mg/kg p.o. des entsprechenden Racemats. Die endogenen Konzentrationen von Noradrenalin und von Dopamin im Rattenhirn, gemessen nach P. Waldmeier, de Herdt und L. Maitre [Chir. Chem. 20, 81, (1974)] werden weder vom Hydrochlorid der Verbindung der Formel I in Dosen bis 100 mg/kg bzw. bis 30 mg/kg p.o., noch vom entsprechenden Racemat in Dosen bis 10 mg/kg bzw. bis 100 mg/kg beeinflusst.

[4] = test system: Noradrenalindepletierenden Effektes von H 77/77 (3-Hydroxy-4,a-dimethyl- phenäthylamin) im Rattenhirn; test: Inhibition of the noradrenaline-depleting effect of H 77/77 in rat brain (indirect measure of noradrenaline uptake inhibition); format: in vivo, Ratte; conditions: po, Formel I tested as Hydrochlorid, read-out: ED50 Hemmung des Noradrenalindepletierenden Effektes von H 77/77 im Rattenhirn
[5] = test system: endogenen Konzentrationen von Noradrenalin im Rattenhirn; test: Endogenous noradrenaline concentration in rat brain; format: in vivo, Ratte; conditions: no influence up to this dose, p.o. for Formel I (Hydrochlorid)
[6] = test system: endogenen Konzentrationen von Dopamin im Rattenhirn; test: Endogenous dopamine concentration in rat brain; format: in vivo, Ratte; conditions: no influence up to this dose, p.o. for Formel I (Hydrochlorid)
[7] = test system: Histamin-Toxizität; test: Antagonism of histamine toxicity; format: in vivo, Meerschweinchen; conditions: guinea pig; equal doses of Formel I (tested as Hydrochlorid) and Racemat
Excerpt: (§2) Therap. 125, 28-34 (1959)], während bei der Antagonisierung der durch Tetrabenazin induzierten Katalepsie der Ratte nach oraler Verabreichung, und bei der Potenzierung der durch G 29 505 [2-(4-Allyl-2-methoxyphenoxy)-N,N-diäthyl-acetamid] bewirkten Narkose der Maus [W. Theobald und R. Domenjoz, Arzneimittelforsch.

[8] = test system: exploratorischen Aktivität der Maus; test: Exploratory activity; format: in vivo; conditions: mouse; equal doses of Formel I (tested as Hydrochlorid) and Racemat
[9] = test system: durch Fuss-Schock induzierten Kampfreaktion der Maus; test: Foot-shock induced fighting reaction; format: in vivo; conditions: mouse; equal doses of Formel I (tested as Hydrochlorid) and Racemat
Excerpt: as §2

[10] = test system: durch Tetrabenazin induzierten Katalepsie der Ratte; test: Antagonism of tetrabenazine-induced catalepsy; format: in vivo; conditions: rat; oral administration; Hydrochlorid compared with Racemat
Excerpt: as §2

[11] = test system: durch G 29 505 [2-(4-Allyl-2-methoxyphenoxy)-N,N-diäthyl-acetamid] bewirkten Narkose der Maus; test: Potentiation of G 29 505-induced narcosis; format: in vivo; conditions: mouse; intraperitoneal administration; Hydrochlorid compared with Racemat
Excerpt: as §2

[12] = Acute toxicity; format: in vivo
[13] = test system: isolierten rechten Vorhof; set-up: species or system Meerschweinchen

SMILES | Antagonisierung der Reserpin induzierten Hypothermie, Vergleich mit Racemat [1] | Reserpin induzierte Ptosis ([2]; male rats, 0,3 mg/kg p.o. of the Hydrochlorid) | Reserpin induzierte Ptosis ([2]; male rats, O,1 mg/kg p.o. of the Hydrochlorid) | ED50 [3] [mg/kg] | ED50 [4] [mg/kg] | Dosen, bis zu denen die endogene Konzentration von Noradrenalin im Rattenhirn nicht beeinflusst wird [5] [mg/kg] | Dosen, bis zu denen die endogene Konzentration von Dopamin im Rattenhirn nicht beeinflusst wird [6] [mg/kg] | Antagonisierung der Histamin-Toxizität, Vergleich mit Racemat [7] | exploratorische Aktivität, Vergleich mit Racemat [8] | durch Fuss-Schock induzierte Kampfreaktion, Vergleich mit Racemat [9] | Antagonisierung der durch Tetrabenazin induzierten Katalepsie, Vergleich mit Racemat [10] | Potenzierung der durch G 29 505 bewirkten Narkose, Vergleich mit Racemat [11] | akute Toxizität, Vergleich mit Racemat ([12]; intravenous administration) | akute Toxizität, Vergleich mit Racemat ([12]; oral administration) | negativ chronotrope Wirkung, Vergleich mit Racemat [13] | Dosierung, die die Reserpin induzierte Ptosis völlig aufhebt ([2]; male rats, relative to 0,3 mg/kg p.o. of the Hydrochlorid of Formel I)
CNC[C@@H](O)CC12CCC(c3ccccc31)c1ccccc12 [Verbindung der Formel I, S-(+)-a-[(Methylamino)methyl]-9,10-äthanoanthracen-9(10H)-äthanol] | stärker als die Wirkung von mehrfachen Dosen des entsprechenden Racemats | aufgehoben | deutlich vermindert | ~0.3 | ~2 | ≤ 100 | ≤ 30 | ungefähr dieselben Wirkungen | ungefähr dieselben Wirkungen | ungefähr dieselben Wirkungen | in ungefähr der halben Dosierung gleich wirksam | in ungefähr der halben Dosierung gleich wirksam | ungefähr gleich | ungefähr gleich | schwächer | 
CNCC(O)CC12CCC(c3ccccc31)c1ccccc12 (racemic) [Racemat, a-[(Methylamino)methyl]-9,10-äthanoanthracen-9(10H)-äthanol, reference compound] |  |  |  | ~1.5 | ~10 | ≤ 10 | ≤ 100 |  |  |  |  |  |  |  |  | erheblich höheren Dosierung
